Experimental data taken from PubChem BioAssay (NCI).
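Briefly, cells in 96-well plates were exposed to five compound concentrations for 48 h, and endpoints were estimated by linear interpolation. TGI is the concentration that stops growth completely.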

What was measured:
Experiment in all cases: NCI tumour cell line growth inhibition, 48 h
[1] = tested on: HCT-116 colon
[2] = tested on: SNB-75 CNS
[3] = tested on: DMS 273 small cell lung
[4] = tested on: HCT-15 colon
[5] = tested on: LXFL 529 NSCLC
[6] = tested on: CCRF-CEM leukemia
[7] = tested on: M14 melanoma
[8] = tested on: RXF-631 renal
[9] = tested on: NCI-H226 lung
[10] = tested on: COLO 205 colon
[11] = tested on: HOP-92 NSCLC
[12] = tested on: SF-539 CNS
[13] = tested on: ACHN renal
[14] = tested on: DMS 114 small cell lung
[15] = tested on: K-562 leukemia
[16] = tested on: SK-OV-3 ovarian
[17] = tested on: IGROV1 ovarian
[18] = tested on: UO-31 renal
[19] = tested on: CAKI-1 renal
[20] = tested on: SK-MEL-28 melanoma
[21] = tested on: XF 498 CNS
[22] = tested on: HOP-62 NSCLC
[23] = tested on: 786-0 renal
[24] = tested on: RPMI-8226 leukemia
[25] = tested on: MOLT-4 leukemia
[26] = tested on: HCC-2998 colon
[27] = tested on: SR leukemia
[28] = tested on: A498 renal
[29] = tested on: SN12C renal
[30] = tested on: SK-MEL-2 melanoma
[31] = tested on: HL-60(TB) leukemia
[32] = tested on: NCI-H23 lung
[33] = tested on: OVCAR-4 ovarian
[34] = tested on: NCI-H522 lung
[35] = tested on: NCI-H460 lung
[36] = tested on: UACC-62 melanoma
[37] = tested on: M19-MEL melanoma
[38] = tested on: DLD-1 colon
[39] = tested on: SF-268 CNS
[40] = tested on: SNB-19 CNS
[41] = tested on: KM12 colon
[42] = tested on: RXF 393 renal
[43] = tested on: UACC-257 melanoma
[44] = tested on: SF-295 CNS
[45] = tested on: KM20L2 colon
[46] = tested on: U251 CNS
[47] = tested on: MALME-3M melanoma
[48] = tested on: OVCAR-3 ovarian
[49] = tested on: OVCAR-8 ovarian
[50] = tested on: SW-620 colon
[51] = tested on: A549 NSCLC
[52] = tested on: LOX IMVI melanoma
[53] = tested on: TK-10 renal
[54] = tested on: EKVX NSCLC
[55] = tested on: OVCAR-5 ovarian
[56] = tested on: SK-MEL-5 melanoma
[57] = tested on: SNB-78 CNS
[58] = tested on: HT29 colon
[59] = tested on: HOP-18 NSCLC

Measured: TGI

Cc1[nH]c(=O)nc(N(CCO)/N=C/c2ccccc2Cl)c1C(=O)Nc1cc(Cl)cc(Cl)c1
69.9 µM: [11]
59.1 µM: [22]
46.2 µM: [23]
59.4 µM: [1]
63.8 µM: [2]
49.8 µM: [16]
60.1 µM: [12]
87.9 µM: [34]
53.3 µM: [9]
93 µM: [33]
44.5 µM: [28]
not listed: [40] | [41] | [42] | [43] | [44] | [45] | [46] | [47] | [48] | [49] | [50] | [51] | [52] | [53] | [54] | [55] | [56] | [57] | [58] | [59]
> 100 µM: all other assays above

CCc1cccc(C(C)C)c1NC(=O)C(=O)C(CC(=O)Nc1ccc(Cl)c(Cl)c1)C(=O)OC (configuration not stated)
6.77 µM: [36]
24.6 µM: [50]
32.8 µM: [4]
not listed: [5]
> 100 µM: all other assays above

COCCCNC(=O)CC(=O)NCCCOC
not listed: [2] | [3] | [9] | [16] | [19] | [21] | [52]
> 100 µM: all other assays above

CC(C)(C)c1cc2c3c(c1)C(C(F)(F)F)(C(F)(F)F)O[Te]3(C)OC2(C(F)(F)F)C(F)(F)F
not listed: [2] | [8] | [11] | [28] | [49] | [56]
> 100 µM: all other assays above
